According to US20240092745A1, “DRUGS AND COMPOSITIONS FOR THE TREATMENT OF OCULAR DISORDERS” (Graybug Vision, Inc., priority 2017, published 2024):
Converted amounts (≈) assume the structure as drawn. “Also recorded” adds a separate entry of the source. Where a name gives a salt, the structure may show the parent alone. Read-outs that look alike come from different tables or passages of the source. Each block holds one compound with its values, some of them ahead of it.

Experiments:
[1] = In vitro stability of prodrugs (degradation to parent, RP-HPLC); format: physicochemical; details: for degradation kinetics / hydrolysis to parent, in words: PBS (pH 7) with 10% DMSO, RP-HPLC
Protocol: Prodrugs of interest were dissolved in PBS (pH 7) containing 10% DMSO (v/v) at a concentration of 0.1 mg/mL. The samples were incubated at 37° C. or 50° C. to simulate physiological and accelerated degradation conditions, respectively. At various time points, 500 μL of the solution was collected, filtered through a 0.2 μm nylon syringe filter and analyzed by RP-HPLC.
Timolol-Dorzolamide bi-functional prodrugs were dissolved in a mixture of DMSO and PBS and incubated at 37° C. The solution was aliquoted and analyzed by HPLC at pre-determined time points. Timolol-Dorzolamide bi-functional prodrugs were stable for about 3 hours as evidenced by the significant reduction of prodrug peaks in HPLC after 2-3 hours (FIG. 30A and FIG. 30B). Timolol parent drug was detected as the bi-functional prodrug degraded, whereas Dorzolamide appeared in the form of prodrugs, i.e., Dorzolamide linked with 1-3 PLA units.

[2] = Determination of drug solubility in aqueous and organic solvent; format: physicochemical; details: for solubility: thermodynamic from solid;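 on all read-outs here: solid drug suspended at 50 mg/mL nominal in each solvent, vortexed and sonicated, then dissolved concentration in filtered supernatant quantified by HPLC against a calibration curve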
Protocol: For each test, approximately 5-10 mg was transferred to a 10 mL glass vial. Aqueous or organic solvent was added to each vial to achieve an overall concentration of 50 mg/mL. After vortexing aggressively for 2-3 minutes and sonicating in a bath sonicator for 5 minutes, undissolved drug was spun down at 1200 rpm for 5 minutes to generate a pellet. The supernatant was collected and filtered through a 0.2 μm nylon syringe filter into HPLC vials for drug content analysis. Drug concentration was determined by comparing against a standard calibration curve.

[3] = organic solvent or mixture, Table 3B, DMSO, read-out: Solubility DMSO
[4] = Table 3B, water, drug added to 50 mg/mL, read-out: Solubility Water
[5] = organic solvent or mixture, Table 3A, DMSO, read-out: Solubility DMSO
[6] = Table 3A, water, drug added to 50 mg/mL, read-out: Solubility Water
[7] = Table 3B, water, drug added to 50 mg/mL
[8] = organic solvent or mixture, Table 3A, DCM, read-out: Solubility DCM

- time in which prodrug cleaves to afford the active moieties ([1]; 37° C.): less than 5 hours
Compound: CCN[C@H]1C[C@H](C)S(=O)(=O)c2sc(S(=O)(=O)NC(=O)[C@H](C)OC(=O)[C@H](C)OC(=O)[C@H](C)OC(=O)CCCC(=O)O[C@@H](CNC(C)(C)C)COc3nsnc3N3CCOCC3)cc21 [Compound 64-4, Timolol-O-glutarate-PLA(n=3)-Dorzolamide maleate salt]

- solubility [2, 3]: > 100 mg/mL
- solubility [2, 4]: < 1 mg/mL
Compound: CCCCCCCCCCCCCCCCCC(=O)O[C@@H](C)C(=O)O[C@H](COc1nsnc1N1CCOCC1)CN(C(C)=O)C(C)(C)C [Compound 65-1]
- degradation kinetics / hydrolysis to parent, in words ([1]; 37° C.): resistant to hydrolysis and failed to release the parent over the course of the study; also recorded: resistant to hydrolysis

- solubility [2, 3]: > 50 mg/mL
- solubility [2, 4]: < 0.01 mg/mL
Compound: CCCCC/C=C\C/C=C\CCCCCCCC(=O)O[C@@H](CNC(C)(C)C)COc1nsnc1N1CCOCC1.O=C(O)/C=C\C(=O)O [Compound 70-1, Timolol-O-linoleic acid maleate]
- degradation kinetics / hydrolysis to parent, in words ([1]; 37° C.): degraded steadily over the 4-day period, releasing parent Timolol in a linear rate; also recorded: steady generation of the parent Timolol

- solubility [2, 3]: > 50 mg/mL
Compound: COc1cccc(CN(CCOC(=O)[C@H](C)OC(=O)[C@H](C)OC(=O)[C@H](C)OC(=O)[C@H](C)OC(C)=O)C(=O)Nc2ccc(-c3cn[nH]c3)cc2)c1 [Compound 88-3, SR5834-acetyl PLA(n=4)]

Compound: CC/C=C\C/C=C\C/C=C\C/C=C\C/C=C\C/C=C\CCC(=O)O[C@@H](C)C(=O)O[C@@H](C)C(=O)O[C@H](COc1nsnc1N1CCOCC1)CN(C(C)=O)C(C)(C)C [Compound 102-1, N-acyl-Timolol-PLA (n=2)-DHA]
- degradation kinetics / hydrolysis to parent, in words ([1]; 37° C.): steady generation of intermediate degradants and slow hydrolysis to the parent compound; also recorded: steady generation of the intermediate N-acyl-Timolol-PLA (n=1)-DHA and slow hydrolysis to parent Timolol

- solubility [2, 5]: > 50 mg/mL
- solubility [2, 6]: < 0.1 mg/mL
Compound: CC(=O)O[C@@H](C)C(=O)O[C@@H](C)C(=O)O[C@@H](C)C(=O)O[C@@H](C)C(=O)O[C@@H](C)C(=O)O[C@@H](C)C(=O)O[C@@H](C)C(=O)O[C@@H](C)C(=O)N1CCN=C1Nc1ccc2nccnc2c1Br [Compound 109-1, Brimonidine-acetyl PLA(n=8)]

- solubility [2, 5]: > 50 mg/mL
- solubility [2, 6]: < 1 mg/mL
Compound: CC(=O)O[C@@H](C)C(=O)O[C@@H](C)C(=O)N1CCN(C(=O)[C@H](C)OC(=O)[C@H](C)OC(C)=O)C1=Nc1ccc2nccnc2c1Br [Compound 111-4, Brimonidine-bis-acetyl PLA(n=2)]

- solubility [2, 3]: 50 mg/mL (≈ 48.7 mM)
- solubility [2, 4]: < 1 mg/mL
Compound: COc1cccc(CN(CCOC(=O)[C@H](C)OC(=O)[C@H](C)OC(=O)[C@H](C)OC(=O)[C@H](C)OC(C)=O)C(=O)Nc2ccc(-c3cnn(C(=O)[C@H](C)OC(=O)[C@H](C)OC(=O)[C@H](C)OC(=O)[C@H](C)OC(C)=O)c3)cc2)c1 [Compound 113-1, SR5834-bis-acetyl PLA(n=4)]

- solubility [2, 5]: 100 mg/mL (≈ 192 mM)
- solubility [2, 6]: 1 mg/mL (≈ 1.92 mM)
Compound: CC(=O)O[C@@H](C)C(=O)O[C@@H](C)C(=O)N1CCN(C(C)=O)C1=Nc1ccc2nccnc2c1Br [Compound 114-4, Brimonidine-acetyl PLA(n=2)-N-Acetate]

- solubility [2, 5]: 100 mg/mL (≈ 150 mM)
- solubility [2, 6]: < 0.2 mg/mL
Compound: CC(=O)OC(C)C(=O)OC(C)C(=O)OC(C)C(=O)OC(C)C(=O)N1CCN(C(C)=O)C1=Nc1ccc2nccnc2c1Br (stereo not drawn) [Compound 115-1, Brimonidine-acetyl PLA(n=4)-N-Acetate]

- solubility [2, 5]: 100 mg/mL (≈ 105 mM)
Compound: CC(=O)O[C@@H](C)C(=O)O[C@@H](C)C(=O)O[C@@H](C)C(=O)O[C@@H](C)C(=O)N1CCN(C(=O)[C@H](C)OC(=O)[C@H](C)OC(=O)[C@H](C)OC(=O)[C@H](C)OC(C)=O)C1=Nc1ccc2nccnc2c1Br [Compound 116-1, Brimonidine-bis-acetyl PLA(n=4)]

- solubility [2, 3]: > 50 mg/mL
- solubility [2, 4]: < 1 mg/mL
- polymer hydrolyzed to release free Timolol ([1]; by day 13, 37° C.): approximately 50%
Compound: CCOC(=O)CCC(=O)O[C@H](COc1nsnc1N1CCOCC1)CN(C(=O)[C@H](C)OC(=O)[C@H](C)OC(C)=O)C(C)(C)C [Compound 117-6, Timolol-bis-N-acetyl-PLA(n=2)-O-ethyl-succinate]

- solubility [2, 3]: > 50 mg/mL
- solubility [2, 4]: < 0.1 mg/mL
Compound: CC(=O)O[C@@H](C)C(=O)O[C@@H](C)C(=O)O[C@H](COc1nsnc1N1CCOCC1)CN(C(=O)[C@H](C)OC(=O)[C@H](C)OC(C)=O)C(C)(C)C [Compound 118-1, Timolol-bis-N-acetyl-PLA(n=2)]
- degradation kinetics / hydrolysis to parent, in words ([1]; 37° C.): degraded slightly faster than a Timolol-bis-N-acetyl PLA(n=4) (119-6)

- solubility [2, 3]: > 50 mg/mL
- solubility [2, 4]: < 1 mg/mL
Compound: CCOC(=O)CCC(=O)O[C@H](COc1nsnc1N1CCOCC1)CN(C(=O)[C@H](C)OC(=O)[C@H](C)OC(=O)[C@H](C)OC(=O)[C@H](C)OC(C)=O)C(C)(C)C [Compound 120-1, Timolol-bis-N-acetyl-PLA(n=4)-O-ethyl succinate]
- degradation kinetics / hydrolysis to parent, in words ([1]; 37° C.): degraded to free Timolol incompletely by day 13

- solubility [2, 3]: > 50 mg/mL
- solubility [2, 4]: < 0.006 mg/mL
Compound: CC(=O)OC(C)C(=O)OC(C)C(=O)OC(C)C(=O)OC(C)C(=O)N(C[C@@H](COc1nsnc1N1CCOCC1)OC(=O)C(C)OC(=O)C(C)OC(C)=O)C(C)(C)C (stereo partly drawn) [Compound 229, Timolol-bis-N-acetyl-PLA(n=4)-O-acetyl PLA(n=2)]

- solubility [2, 3]: > 50 mg/mL
- solubility [2, 4]: < 0.007 mg/mL
Compound: CC(=O)OC(C)C(=O)OC(C)C(=O)OC(C)C(=O)OC(C)C(=O)O[C@H](COc1nsnc1N1CCOCC1)CN(C(=O)C(C)OC(=O)C(C)OC(C)=O)C(C)(C)C (stereo partly drawn) [Compound 230, Timolol-bis-N-acetyl-PLA(n=2)-O-acetyl PLA(n=4)]

- Solubility DCM ([2]; Table 3B, DCM): <1.0 mg/mL
- Solubility DMSO ([2]; Table 3B, DMSO): <1.0 mg/mL
- Solubility Water [2, 7]: >50 mg/mL
- solubility [2, 8]: < 1 mg/mL
- solubility [2, 5]: < 1 mg/mL
- solubility [2, 6]: > 50 mg/mL
Compound: CCN[C@H]1C[C@H](C)S(=O)(=O)c2sc(S(N)(=O)=O)cc21 [Dorzolamide, reference compound]

Compound: CCN[C@H]1C[C@H](C)S(=O)(=O)c2sc(S(=O)(=O)NC(=O)[C@H](C)O)cc21 [Dorzolamide-PLA (n = 1), dorzolamide-PLA (n=1)]
- Solubility DMSO ([2]; Table 3A, DMSO): <1.0 mg/mL
- Solubility Water ([2]; Table 3A, water, drug added to 50 mg/mL): >50 mg/mL

- solubility [2, 8]: > 50 mg/mL
- solubility [2, 5]: > 50 mg/mL
- solubility [2, 6]: < 1 mg/mL
Compound: CC(C)OC(=O)CCC/C=C\C[C@@H]1[C@@H](CC[C@@H](O)CCc2ccccc2)[C@H](O)C[C@@H]1O [Latanoprost, reference compound]

- solubility [2, 3]: > 100 mg/mL
- solubility [2, 4]: < 1 mg/mL
Compound: CCN(Cc1cccc(OC)c1)C(=O)Nc1ccc(-c2cn[nH]c2)cc1OCCN1CCCC1 [RKI-1y, 3-(4-(1H-pyrazol-4-yl)-2-(2-(pyrrolidin-1-yl)ethoxy)phenyl)-1-ethyl-1-(3-methoxybenzyl)urea, reference compound]

- solubility [2, 3]: > 100 mg/mL
- solubility [2, 4]: < 1 mg/mL
Compound: COc1cccc(CN(CCO)C(=O)Nc2ccc(-c3cn[nH]c3)cc2OCCN2CCCC2)c1 [RKI-H-1y, 1-(2-hydroxyethyl)-1-[(3-methoxyphenyl)methyl]-3-[4-(1H-pyrazol-4-yl)-2-[2-(pyrrolidin-1-yl)ethoxy]phenyl]urea, reference compound]

- solubility [2, 3]: > 100 mg/mL
- solubility [2, 4]: < 1 mg/mL
Compound: COc1cccc(CN(CCO)C(=O)Nc2ccc(-c3cn[nH]c3)cc2)c1 [SR5834, 1-(2-hydroxyethyl)-1-[(3-methoxyphenyl)methyl]-3-[4-(1H-pyrazol-4-yl)phenyl]urea, reference compound]

- Solubility DCM ([2]; Table 3B, DCM): >50 mg/mL
- Solubility DMSO ([2]; Table 3B, DMSO): >50 mg/mL
- Solubility Water [2, 7]: >50 mg/mL
Compound: Brinzolamide (n = 1)

- Solubility DMSO ([2]; Table 3B, DMSO): >100 mg/mL
- Solubility Water [2, 7]: <1.0 mg/mL
Compound: N-acyl-Timolol-PLA (n = 2)-DHA [N-Acyl-Timolol-PLA (n = 2) DHA]

- Solubility DMSO ([2]; Table 3B, DMSO): >50 mg/mL
- Solubility Water [2, 7]: <0.00005 mg/mL
Compound: Timolol-Bis-Acetyl-PLA (n = 4) [Compound 119-1]
